{"source": "patent US20020004500A1", "about": "“Vasopeptidase Inhibitors to treat isolated systolic hypertension” (priority 2000, published 2002)", "key": {"[1]": {"system": "subjects with isolated systolic hypertension", "test": "Omapatrilat in subjects with isolated systolic hypertension: trough seated blood pressure, forced- and elective-dose titration versus placebo", "assay_type": "in vivo, human", "conditions": "for Δtrough seated diastolic blood pressure / Δtrough seated systolic blood pressure: week 9, change from baseline, trough 24±3 hours post dose; for percentage of normalized subjects (trough seated systolic blood pressure less than 140 mm Hg): week 9", "procedure": "Omapatrilat was studied in subjects with isolated systolic hypertension (seated systolic blood pressure 160-199 mm Hg and diastolic blood pressure less than 90 after 4 weeks of single-blind placebo lead-in). Both a forced-dose titration (at Week 1) and an elective-dose titration (at Week 9) design were used to compare the change from baseline, relative to placebo, in trough (24±3 hours post dose) seated systolic blood pressure after 9 weeks and 13 weeks of once-daily oral administration of 3 dose regimens of omapatrilat. Treatment regimens consisted of omapatrilat 10 mg lead-in maintained at 10 mg at week 1, electively titrated to 20 mg at week 9 for subjects with a seated systolic blood pressure greater than or equal to 140 mm Hg, or omapatrilat 20 mg lead-in maintained at 20 mg at week 1, electively titrated to 40 mg at week 9 for subjects with a seated systolic blood pressure greater than or equal to 140 mm Hg, or omapatrilat 20 mg lead-in increased to 40 mg at week 1, electively titrated to 80 mg at week 9 for subjects with a seated systolic blood pressure greater than or equal to 140 mm Hg. Placebo was mock titrated at weeks 1 and week 9.\n429 subjects were randomized. The mean age was 67 years, and mean baseline blood pressure was 169/82 mm Hg. The primary efficacy objective was to compare the change from baseline, relative to placebo, in trough (24±3 hours post dose) seated systolic blood pressure after 9 weeks of once-daily oral administration of 3 dose regimens of omapatrilat."}, "neutral endopeptidase": {"system": "neutral endopeptidase", "test": "Urinary atrial natriuretic peptide excretion rate in subjects with isolated systolic hypertension", "assay_type": "in vivo, human", "conditions": "once daily 80 mg, at 24 hours after dosing"}, "[2]": {"conditions": "omapatrilat 10/10 mg once-daily oral"}, "[3]": {"conditions": "omapatrilat 20/20 mg once-daily oral"}, "[4]": {"conditions": "omapatrilat 20/40 mg once-daily oral"}}}
{"smiles": "O=C(N[C@H]1CCSC2CCC[C@@H](C(=O)O)N2C1=O)C(S)Cc1ccccc1", "note": "(relative stereo) [Omapatrilat, [4S-[4α(R*), 7α, 10aβ]]-octahydro-4-[(2-mercapto-1-oxo-3-phenylpropyl)amino]-5-oxo-7H-pyrido[2,1-b][1,3]thiazepine-7-carboxylic acid]", "values": [{"measurement": "systolic and diastolic blood pressure reductions at trough versus placebo regimen", "setting": "[1]; 10/10/20 mg, 20/20/40 mg and 20/40/80 mg once-daily for 13 weeks, predominately elderly subjects", "result": "greater systolic blood pressure and diastolic blood pressure reductions at trough than a regimen of placebo"}, {"measurement": "systolic blood pressure reductions versus placebo", "setting": "[1]; Week 13, after elective titration", "result": "Additional small reductions in systolic blood pressure versus placebo"}, {"measurement": "Δtrough seated diastolic blood pressure", "setting": "[1]; [2]", "result": "−1.8"}, {"measurement": "Δtrough seated systolic blood pressure", "setting": "[1]; [2]", "result": "−15.9"}, {"measurement": "percentage of normalized subjects (trough seated systolic blood pressure less than 140 mm Hg)", "setting": "[1]; omapatrilat 10/10 mg", "result": 28, "unit": "%"}, {"measurement": "Δtrough seated diastolic blood pressure", "setting": "[1]; [3]", "result": "−2.6"}, {"measurement": "Δtrough seated systolic blood pressure", "setting": "[1]; [3]", "result": "−23.1"}, {"measurement": "percentage of normalized subjects (trough seated systolic blood pressure less than 140 mm Hg)", "setting": "[1]; omapatrilat 20/20 mg", "result": 51, "unit": "%"}, {"measurement": "Δtrough seated diastolic blood pressure", "setting": "[1]; [4]", "result": "−4.6"}, {"measurement": "Δtrough seated systolic blood pressure", "setting": "[1]; [4]", "result": "−26.1"}, {"measurement": "percentage of normalized subjects (trough seated systolic blood pressure less than 140 mm Hg)", "setting": "[1]; omapatrilat 20/40 mg", "result": 47, "unit": "%"}, {"measurement": "systolic and diastolic blood pressure reductions versus placebo regimen", "setting": "[1]; week 9, all 3 omapatrilat regimens", "result": "greater systolic and diastolic blood pressure reductions than the placebo regimen"}, {"measurement": "urinary atrial natriuretic peptide excretion rate", "setting": "neutral endopeptidase", "result": "persistent elevation"}]}
